{"source": "patent US9238634B2", "about": "“Anti-inflammatory metabolite derived from omega-3-type fatty acid” (THE UNIVERSITY OF TOKYO, priority 2010, dated 2016)", "tested_on": "PMN (neutrophils)", "experiment": "Zymosan peritonitis model, number of PMN (neutrophils) in intraperitoneal cells by FACS", "format": "in vivo, C57BL/6J mice", "conditions": "for PMN (mean % suppression) / Inhibition rate (PMN inhibition): caudal vein, zymosan 1 mg i.p.; for PMN (mean % suppression): two hours; for suppression of neutrophil infiltration: caudal vein (FIG. 4C); for Inhibition rate (PMN inhibition): cells recovered two hours later", "description": "[FIG. 4A] […] The model was produced by inducing acute peritonitis by intraperitoneal administration of 1 mg of zymosan to C57BL6 mice. From the left, 17,18-EpETE, 5-hydroxy-17,18-epoxy-ETE (5hy-17,18-EpETE), 8-hydroxy-17,18-epoxy-ETE (8hy-17,18-EpETE), 12-hydroxy-17,18-epoxy-ETE (12hy-17,18-EpETE), and 15-hydroxy-17,18-epoxy-ETE (15hy-17,18-EpETE) respectively ([…]) were injected from a caudal vein of the mouse, and peritonitis was initiated by intraperitoneal administration of 1 mg of zymosan five minutes later. Intraperitoneal cells were recovered two hours later, and the results obtained by analyzing the number of PMN (neutrophils) of each by FACS are shown. […]\nZymosan peritonitis induced by intraperitoneal administration of zymosan, which is a cell wall component of yeast, was used as the inflammation model. This model is suited to the analysis of cytokines and eicosanoids since the intraperitoneal exudate can be recovered.\nZymosan A (Wako Pure Chemical Industries) was suspended in physiological saline to make 1 mg/mL and warmed for 30 minutes at 37° C. The zymosan A solution was then vortexed and returned to room temperature. A compound synthesized in a previous example was placed in a 1.5 mL tube and completely dried by driving off the solvent by nitrogen. It was then dissolved by adding physiological saline. […] Groups injected with only physiological saline (saline) or dexamethasone (10 μg/mouse), which is an anti-inflammatory steroid, were used as controls. Approximately two minutes later, 1 mL of zymosan A solution was administered intraperitoneally. Two hours later, cells that had exuded into the peritoneal cavity were recovered by tube by PBS, and the cells were counted. This tube was then centrifuged for five minutes at 1200 rpm, 4° C., and the supernatant was discarded. The precipitate (pellets) was suspended in PBS, and population analysis was performed by FACS three-color stain.\nPeritoneal cells were adjusted to 2.5×10^6 cells/mL, and 200 μL was placed in a 5 mL round-bottomed tube (BD Falcon) (5×10^5 cells/tube). A quantity of 1 μL/tube of anti-mouse CD16/CD32 antibody (0.5 mg/mL; BD Biosciences) was added to this tube and incubated for 10 minutes at room temperature. Staining antibody mix (1.0 μL/sample of FITC-bound anti-mouse F4/80 antibody (0.5 mg/mL; eBioscience), 0.5 μL of PE-bound anti-mouse Ly-6G&Ly-6C antibody (0.2 mg/mL; eBioscience), and 0.5 μL of perCP-Cy5.5-bound anti-mouse CD11b antibody (0.2 mg/mL; eBioscience) per sample prepared by dilution by 50 μL of PBS) was added to this tube in a quantity of 50 μL/tube and incubated for 15 minutes at room temperature shielded from light. Measurement was performed by an FACS Calibur (BD Biosciences).", "key": {"[1]": {"conditions": "100 ng, Table 5 (FIG. 4B), mean of 3-4 studies"}, "[2]": {"conditions": "100 ng, Table 3 (FIG. 4A), mean of 4-6 studies"}, "[3]": {"conditions": "100 ng, Table 4 (FIG. 4B), mean of 3-4 studies"}, "[4]": {"conditions": "100 ng, Table 6 (FIG. 4D), mean of 6-11 studies"}}}
{"molecule": "CCC1OC1CC=CC=CC(O)CC=CCC=CCC=CCCC(=O)O", "note": "(stereo not shown) [13-hy-19,20-EpDPE, 13-hydroxy-19,20-epoxy-docosapentaenoic acid]", "values": [{"measurement": "PMN (mean % suppression)", "setting": "[1]", "result": 12.0, "unit": "%"}]}
{"molecule": "CCC1OC1CC=CCC=CC=CC(O)CC=CCC=CCCC(=O)O", "note": "(stereo not shown) [10-hy-19,20-EpDPE, 10-hydroxy-19,20-epoxy-docosapentaenoic acid]", "values": [{"measurement": "PMN (mean % suppression)", "setting": "[1]", "result": 20.7, "unit": "%"}]}
{"molecule": "CCC1OC1C/C=C\\C/C=C\\C=C\\C(O)C/C=C\\CCCC(=O)O", "note": "(stereo not shown) [8-hy-17,18-EpETE, 8-hydroxy-17,18-epoxy-eicosatetraenoic acid]", "values": [{"measurement": "PMN (mean % suppression)", "setting": "[2]", "result": 10.4, "unit": "%"}]}
{"molecule": "CCC1OC1CC=CCC=CCC=CCC=CC=CC(O)CCC(=O)O", "note": "(stereo not shown) [4-hy-19,20-EpDPE, 4-hydroxy-19,20-epoxy-docosapentaenoic acid]", "values": [{"measurement": "suppression of neutrophil infiltration, result in words", "setting": "100 ng", "result": "tend to suppress neutrophil infiltration"}, {"measurement": "PMN (mean % suppression)", "setting": "[3]", "result": 2.1, "unit": "%"}, {"measurement": "PMN (mean % suppression)", "setting": "500 ng, Table 4 (FIG. 4B)", "result": 0.0, "unit": "%"}]}
{"molecule": "CCC1OC1CC=CCC=CCC=CCC=CCC=CCCC(=O)O", "note": "(stereo not shown) [19,20-EpDPE, 19,20-epoxydocosapentaenoic acid, reference compound]", "values": [{"measurement": "PMN (mean % suppression)", "setting": "[3]", "result": 0.0, "unit": "%"}, {"measurement": "PMN (mean % suppression)", "setting": "[1]", "result": 0.0, "unit": "%"}]}
{"molecule": "CCC1OC1C/C=C\\C/C=C\\C/C=C\\C/C=C\\CCCC(=O)O", "note": "(stereo not shown) [17,18-EpETE, 17,18-epoxyeicosatetraenoic acid, reference compound]", "values": [{"measurement": "PMN (mean % suppression)", "setting": "[2]", "result": 0.0, "unit": "%"}]}
{"molecule": "CCC1OC1CC(O)C=CC=CCC=CCC=CCC=CCCC(=O)O", "note": "(stereo not shown) [17-hy-19,20-EpDPE, 17-hydroxy-19,20-epoxy-docosapentaenoic acid]", "values": [{"measurement": "PMN (mean % suppression)", "setting": "[1]", "result": 59.5, "unit": "%"}]}
{"molecule": "CCC1OC1CC=CCC=CCC=CC=CC(O)CC=CCCC(=O)O", "note": "(stereo not shown) [7-hy-19,20-EpDPE, 7-hydroxy-19,20-epoxy-docosapentaenoic acid]", "values": [{"measurement": "PMN (mean % suppression)", "setting": "[3]", "result": 0.0, "unit": "%"}, {"measurement": "suppression of neutrophil infiltration, result in words", "setting": "500 ng", "result": "tend to suppress neutrophil infiltration"}, {"measurement": "PMN (mean % suppression)", "setting": "500 ng, Table 4 (FIG. 4B)", "result": 8.7, "unit": "%"}]}
{"molecule": "14-hydroxy-19,20-epoxy-docosatetraenoic acid [14hy-19,20-EpDTE]", "values": [{"measurement": "suppression of neutrophil infiltration, result in words", "setting": "100 ng", "result": "statistically significant effects"}, {"measurement": "PMN (mean % suppression)", "setting": "[4]", "result": 15.35, "unit": "%"}]}
{"molecule": "CCC1OC1CC=CCC(O)C=CC=CCC=CCC=CCCC(=O)O", "note": "(stereo not shown) [14-hy-19,20-EpDPE, 14-hydroxy-19,20-epoxy-docosapentaeonic acid]", "values": [{"measurement": "PMN (mean % suppression)", "setting": "[1]", "result": 57.3, "unit": "%"}]}
{"molecule": "CCC1OC1CC=CCC(O)C=CC=CCC=CCCCC(=O)O", "note": "(stereo not shown) [12hy-17,18-EpETE, 12-hydroxy-17,18-epoxy-eicosatetraenoic acid]", "values": [{"measurement": "suppression of neutrophil infiltration", "setting": "1 ng/mouse", "result": 30, "unit": "%"}, {"measurement": "suppression of neutrophil infiltration", "setting": "10 ng/mouse", "result": "approximately 40%"}, {"measurement": "PMN (mean % suppression)", "setting": "[2]", "result": 48.4, "unit": "%"}, {"measurement": "neutrophil-suppressing activity compared with dexamethasone control", "setting": "1 or 10 ng/mouse versus 10 μg/mouse of dexamethasone", "result": "equivalent to or better than"}, {"measurement": "Inhibition rate (PMN inhibition)", "setting": "dose 0.44 ng", "result": 28.8, "unit": "%"}, {"measurement": "Inhibition rate (PMN inhibition)", "setting": "dose 4.35 ng", "result": 39.3, "unit": "%"}, {"measurement": "Inhibition rate (PMN inhibition)", "setting": "dose 43.48 ng", "result": 56.3, "unit": "%"}, {"measurement": "Inhibition rate (PMN inhibition)", "setting": "dose 434.8 ng", "result": 49.8, "unit": "%"}, {"measurement": "dose dependence of PMN inhibition", "setting": "doses 0.44 to 434.3 ng (FIG. 4C)", "result": "dose-dependent"}]}
{"molecule": "17-hydroxy-19,20-epoxy-docosatetraenoic acid [17hy-19,20-EpDTE]", "values": [{"measurement": "suppression of neutrophil infiltration, result in words", "setting": "100 ng", "result": "statistically significant effects"}, {"measurement": "PMN (mean % suppression)", "setting": "[4]", "result": 23.28, "unit": "%"}]}
{"molecule": "CCC1OC1C/C=C\\C/C=C\\C=C\\C(O)C/C=C\\CCCCCC(=O)O", "note": "(stereo not shown) [10hy-19,20-EpDTE, 10-hydroxy-19,20-epoxy-docosatetraenoic acid]", "values": [{"measurement": "suppression of neutrophil infiltration, result in words", "setting": "100 ng", "result": "tendency toward suppression"}, {"measurement": "PMN (mean % suppression)", "setting": "[4]", "result": 8.27, "unit": "%"}]}
{"molecule": "CCC1OC1CC=CCC=CCC=CC=CC(O)CCCC(=O)O", "note": "(stereo not shown) [5-hy-17,18-EpETE, 5-hydroxy-17,18-epoxy-eicosatetraeonic acid]", "values": [{"measurement": "PMN (mean % suppression)", "setting": "[2]", "result": 50.6, "unit": "%"}]}
{"molecule": "CCC1OC1CC(O)/C=C/C=C\\C/C=C\\C/C=C\\CCCC(=O)O", "note": "(stereo not shown) [15-hy-17,18-EpETE, 15-hydroxy-17,18-epoxy-eicosatetraenoic acid]", "values": [{"measurement": "PMN (mean % suppression)", "setting": "[2]", "result": 42.9, "unit": "%"}]}
